Drawing on patent US11912703B2, “6-azaindole compounds” (BRISTOL-MYERS SQUIBB COMPANY, priority 2017, dated 2024), this text covers IC50 for 31 compounds.

For one assay, the target named is human TLR7 (Homo sapiens (Human), UniProt Q9NYK1). Kind of assay: TLR7 inhibition reporter assay (HEK-Blue SEAP). It counts as cell-based. The conditions noted are these: HEK-Blue cells overexpressing human TLR7, gardiquimod 7.5 μM stimulation. On the technique in general: Reporter assays use an easily measured gene product as a stand-in for the process of interest.
human TLR7, sequence (Q9NYK1 27-1049): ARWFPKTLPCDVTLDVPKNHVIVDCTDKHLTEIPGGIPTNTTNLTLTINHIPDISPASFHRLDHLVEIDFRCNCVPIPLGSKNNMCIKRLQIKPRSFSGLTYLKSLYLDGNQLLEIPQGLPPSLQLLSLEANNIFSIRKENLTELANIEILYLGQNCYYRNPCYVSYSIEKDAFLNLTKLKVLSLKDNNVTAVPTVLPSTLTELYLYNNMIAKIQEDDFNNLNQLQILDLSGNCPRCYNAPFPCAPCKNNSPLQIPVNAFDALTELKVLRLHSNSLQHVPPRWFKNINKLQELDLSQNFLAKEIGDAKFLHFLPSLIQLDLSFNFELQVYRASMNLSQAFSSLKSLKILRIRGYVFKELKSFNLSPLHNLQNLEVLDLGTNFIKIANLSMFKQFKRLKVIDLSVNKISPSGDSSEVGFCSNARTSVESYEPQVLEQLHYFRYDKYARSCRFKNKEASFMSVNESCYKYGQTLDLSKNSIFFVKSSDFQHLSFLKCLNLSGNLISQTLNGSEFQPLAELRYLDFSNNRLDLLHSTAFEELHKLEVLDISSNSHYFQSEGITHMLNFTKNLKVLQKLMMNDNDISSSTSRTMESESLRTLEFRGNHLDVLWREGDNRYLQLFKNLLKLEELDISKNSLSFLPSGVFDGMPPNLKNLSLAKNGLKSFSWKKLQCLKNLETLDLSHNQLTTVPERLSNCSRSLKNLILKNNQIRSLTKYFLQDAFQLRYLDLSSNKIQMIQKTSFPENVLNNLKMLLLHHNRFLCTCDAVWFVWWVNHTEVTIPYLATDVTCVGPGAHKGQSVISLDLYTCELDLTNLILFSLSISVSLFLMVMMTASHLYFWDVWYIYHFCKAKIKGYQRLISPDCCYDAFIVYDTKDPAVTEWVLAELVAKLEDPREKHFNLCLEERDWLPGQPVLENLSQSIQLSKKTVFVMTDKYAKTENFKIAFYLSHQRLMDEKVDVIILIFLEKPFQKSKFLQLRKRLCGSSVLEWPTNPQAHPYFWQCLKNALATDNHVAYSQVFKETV

A further assay addresses human TLR9 (Homo sapiens (Human), UniProt Q9NR96). Kind of assay: TLR9 inhibition reporter assay (HEK-Blue SEAP).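 Also: SEAP driven by IFN-β minimal promoter carrying five NF-κB and AP-1 sites, 22 h at 37 °C, compounds 0.05 nM–50 µM, inhibition scaled between agonist-plus-DMSO and reference-inhibitor wells.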
The next assay concerns the target human TLR8 (Homo sapiens (Human), UniProt Q9NR97). In words: TLR8 inhibition reporter assay (HEK-Blue SEAP).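 Also: SEAP driven by IFN-β minimal promoter with five NF-κB and AP-1 sites, compounds tested 0.05 nM to 50 µM, 22 h incubation, inhibition relative to agonist plus DMSO wells.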
Setting [1] is: read-out: TLR9 IC50; HEK-Blue cells overexpressing human TLR9, ODN2006 5 nM stimulation, SEAP reporter.
Where [2] appears, read: read-out: TLR8 IC50; HEK-Blue cells overexpressing human TLR8, R848 15.9 μM stimulation, SEAP reporter.
The mark [3] stands for this setting: read-out: TLR9 IC50; HEK-Blue cells overexpressing human TLR9; ODN2006 5 nM stimulation; SEAP reporter.
Where [4] appears, read: read-out: TLR8 IC50; HEK-Blue cells overexpressing human TLR8; R848 15.9 μM stimulation; SEAP reporter.

Like-named read-outs stand apart in the source and are kept apart here.

human TLR9, sequence (Q9NR96 26-1032): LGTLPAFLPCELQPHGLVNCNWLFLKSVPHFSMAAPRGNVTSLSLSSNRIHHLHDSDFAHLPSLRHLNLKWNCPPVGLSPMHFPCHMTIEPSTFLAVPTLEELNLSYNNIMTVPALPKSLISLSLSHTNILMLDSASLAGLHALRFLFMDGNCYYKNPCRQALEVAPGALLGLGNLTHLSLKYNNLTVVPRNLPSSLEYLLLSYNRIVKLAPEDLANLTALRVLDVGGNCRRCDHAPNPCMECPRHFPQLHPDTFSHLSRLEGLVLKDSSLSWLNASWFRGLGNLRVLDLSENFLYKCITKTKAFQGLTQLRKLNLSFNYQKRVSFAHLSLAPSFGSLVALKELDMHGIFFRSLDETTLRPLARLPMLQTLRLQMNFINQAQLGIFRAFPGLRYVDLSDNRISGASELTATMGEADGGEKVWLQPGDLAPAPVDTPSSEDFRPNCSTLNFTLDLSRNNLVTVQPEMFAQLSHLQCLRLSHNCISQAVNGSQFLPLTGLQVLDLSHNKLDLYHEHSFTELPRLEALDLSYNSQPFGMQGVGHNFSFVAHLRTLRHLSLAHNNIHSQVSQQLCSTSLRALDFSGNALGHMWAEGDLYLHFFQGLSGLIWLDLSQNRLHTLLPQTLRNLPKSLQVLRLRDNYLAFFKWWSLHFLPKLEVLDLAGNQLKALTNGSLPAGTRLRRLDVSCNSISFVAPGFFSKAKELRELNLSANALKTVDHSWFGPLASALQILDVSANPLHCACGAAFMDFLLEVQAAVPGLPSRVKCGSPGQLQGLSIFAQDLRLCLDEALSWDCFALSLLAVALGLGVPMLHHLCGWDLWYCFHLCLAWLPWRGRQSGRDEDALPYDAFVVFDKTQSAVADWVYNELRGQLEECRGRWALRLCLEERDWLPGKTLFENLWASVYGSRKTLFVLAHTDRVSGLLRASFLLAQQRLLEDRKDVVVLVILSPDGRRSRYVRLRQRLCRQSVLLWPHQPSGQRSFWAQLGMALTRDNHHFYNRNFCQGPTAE
human TLR8, sequence (Q9NR97 27-1041): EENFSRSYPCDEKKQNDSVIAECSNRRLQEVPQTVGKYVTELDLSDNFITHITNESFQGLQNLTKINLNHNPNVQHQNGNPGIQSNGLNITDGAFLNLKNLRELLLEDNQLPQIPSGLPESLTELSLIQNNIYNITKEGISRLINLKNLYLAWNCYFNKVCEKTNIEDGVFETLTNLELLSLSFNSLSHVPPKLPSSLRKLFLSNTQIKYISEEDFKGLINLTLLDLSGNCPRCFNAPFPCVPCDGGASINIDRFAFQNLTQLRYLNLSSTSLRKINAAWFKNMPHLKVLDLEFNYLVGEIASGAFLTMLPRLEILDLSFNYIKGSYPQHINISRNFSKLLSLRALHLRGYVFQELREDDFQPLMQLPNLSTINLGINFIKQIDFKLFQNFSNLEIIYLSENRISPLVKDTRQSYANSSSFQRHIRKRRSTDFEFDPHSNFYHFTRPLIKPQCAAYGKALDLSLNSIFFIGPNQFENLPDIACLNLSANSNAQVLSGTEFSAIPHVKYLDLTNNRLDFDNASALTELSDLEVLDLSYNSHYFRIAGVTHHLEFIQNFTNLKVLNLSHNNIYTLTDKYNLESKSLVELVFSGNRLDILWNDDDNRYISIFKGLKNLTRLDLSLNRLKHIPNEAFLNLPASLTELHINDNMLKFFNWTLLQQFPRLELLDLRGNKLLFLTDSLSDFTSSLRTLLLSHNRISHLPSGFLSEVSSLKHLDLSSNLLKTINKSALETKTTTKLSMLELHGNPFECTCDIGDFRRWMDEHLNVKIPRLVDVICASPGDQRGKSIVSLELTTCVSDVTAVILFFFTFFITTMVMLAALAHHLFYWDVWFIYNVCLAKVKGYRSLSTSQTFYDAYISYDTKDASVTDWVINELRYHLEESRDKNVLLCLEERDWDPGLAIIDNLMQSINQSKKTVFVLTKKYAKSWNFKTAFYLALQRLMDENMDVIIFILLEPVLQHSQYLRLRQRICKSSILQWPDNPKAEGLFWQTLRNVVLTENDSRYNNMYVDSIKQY

Take `COc1cc(-c2[nH]c3cnc(N4CCNCC4)c(Cl)c3c2C(C)C)cn2ncnc12` [Example 6, 6-(4-chloro-3-isopropyl-5-(piperazin-1-yl)-1H-pyrrolo[2,3-c]pyridin-2-yl)-8-methoxy-[1,2,4]triazolo[1,5-a]pyridine]: the figures for the IC50 against human TLR7, at human TLR9 and at human TLR8 were 0.61 nM, 664 nM and 1.4 nM, respectively.
In the case of `Cc1cc(-c2[nH]c3cnc(C4CCN(CC(N)=O)CC4)c(F)c3c2C(C)C)cn2ncnc12` [Example 125], the IC50 at human TLR7 amounted to 3.1 nM; at human TLR9 (setting [1]) it was 7030 nM; at human TLR8 (setting [2]), 6.5 nM.
In the case of `Cc1cc(-c2[nH]c3cnc(N4CCC(NC5(C)COC5)CC4)c(F)c3c2C(C)C)cn2ncnc12` [Example 43], the IC50 at human TLR7 stood at 1 nM; at human TLR9 (setting [1]), 12700 nM; at human TLR8 (setting [2]), 0.6 nM.
Take `COc1cc(-c2[nH]c3cnc(N4CCN(C5CCC5)CC4)c(F)c3c2C(C)C)cn2ncnc12` [Example 391]: the IC50 came out at 1.4 nM against human TLR7, 4050 nM on human TLR9 (setting [1]) and 0.9 nM at human TLR8 (setting [2]).
For the compound `Cc1c(-c2[nH]c3cnc(C4CCC(N5CCC5)CC4)cc3c2C(C)C)cn2ncnc2c1C` (stereo not drawn) [Example 335], the IC50 turned out to be 4.3 nM against human TLR7, 669 nM on human TLR9 (setting [1]) and 42 nM at human TLR8 (setting [2]).
`Cc1c(-c2[nH]c3cnc(N4CCN(CC(=O)N5CCOCC5)CC4)c(F)c3c2C(C)C)cn2ncnc2c1C` [Example 423]: the IC50 at human TLR7 was 5.4 nM; on human TLR9 (setting [1]) it was 42500 nM; on human TLR8 (setting [2]), 0.59 nM.
With `Cc1c(N2CCC(NC34CC(C3)C4)CC2)ncc2[nH]c(-c3cc(C)c4ncnn4c3)c(C(C)C)c12` [Example 148], the IC50 turned out to be 1.1 nM against human TLR7, 1170 nM at human TLR9 (setting [1]) and 1.7 nM on human TLR8 (setting [2]).
In the case of `Cc1c(-c2[nH]c3cnc(C4CCC(N(C)C(C)C)CC4)c(F)c3c2C(C)C)cn2ncnc2c1C` (stereo not drawn) [Example 168], the IC50 was 3.6 nM at human TLR7, 17500 nM at human TLR9 (setting [1]) and 4.5 nM on human TLR8 (setting [2]).
Turning to `Cc1c(-c2[nH]c3cnc(N4CC5(CN(CC6CCC6)C5)C4)c(F)c3c2C(C)C)cn2ncnc2c1C` [Example 404], the IC50 on human TLR7 amounted to 32 nM; on human TLR9 (setting [1]), 5810 nM; on human TLR8 (setting [2]), 4 nM.
For `COc1cc(-c2[nH]c3cnc(N4CCC(NCC(C)(C)C)CC4)c(C)c3c2C(C)C)cn2ncnc12` [Example 169], the IC50 amounted to 0.36 nM against human TLR7, 1730 nM at human TLR9 (setting [1]) and 0.33 nM on human TLR8 (setting [2]).
In the case of `Cc1c(-c2[nH]c3cnc(C4CCC(NCC(C)(C)C)CC4)cc3c2C(C)C)cn2ncnc2c1C` (stereo not drawn) [Example 337], the IC50 amounted to 3.9 nM at human TLR7, 777 nM on human TLR9 (setting [1]) and 4 nM at human TLR8 (setting [2]).
`COc1cc(-c2[nH]c3cnc(C4CCC(N(C)C5COC5)CC4)c(F)c3c2C(C)C)cn2ncnc12` (stereo not drawn) [Example 197]: the IC50 is 0.3 nM on human TLR7, 1570 nM at human TLR9 (setting [1]) and 0.44 nM at human TLR8 (setting [2]).
On the same counts, the results for `Cc1c(-c2[nH]c3cnc(C4CCN(CC(N)=O)CC4)c(F)c3c2C(C)C)cn2ncnc2c1C` [Example 15] are 3.5 nM, 13500 nM and 1.6 nM.
On to `CCCN1CCN(c2ncc3[nH]c(-c4cn5ncnc5c(C)c4C)c(C(C)C)c3c2F)[C@H](C)C1` [Example 455], for which the IC50 against human TLR7 was 0.59 nM; on human TLR9 (setting [3]) it was 14600 nM; on human TLR8 (setting [4]), 0.17 nM.
`COCCN1CCN(c2ncc3[nH]c(-c4cc(OC)c5ncnn5c4)c(C(C)C)c3c2C)CC1` [Example 126]: the IC50 worked out at 8.2 nM on human TLR7, 2530 nM at human TLR9 (setting [1]) and 3.2 nM on human TLR8 (setting [2]).
On the same counts, the results for `COc1cc(-c2[nH]c3cnc(C4CCC(NCC5(C)COC5)C4)cc3c2C(C)C)cn2ncnc12` (stereo not drawn) [Example 59] are 15 nM, 197 nM and 4.7 nM.
Take `COc1cc(-c2[nH]c3cnc(N4CCN(CCS(C)(=O)=O)CC4)c(C)c3c2C(C)C)cn2ncnc12` [Example 186]: the results for the IC50 against human TLR7, on human TLR9 (setting [1]) and at human TLR8 (setting [2]) were 12 nM, 26500 nM and 6.6 nM, respectively.
As to `Cc1cc(-c2[nH]c3cnc(C4CCC(N(C)C(C)C)CC4)c(F)c3c2C(C)C)cn2ncnc12` (stereo not drawn) [Example 261], the IC50 is 0.61 nM on human TLR7, 1270 nM at human TLR9 (setting [1]) and 1.1 nM on human TLR8 (setting [2]).
For `Cc1c(-c2[nH]c3cnc(N4CCC(NC(C)C)CC4)c(C)c3c2C(C)C)cn2ncnc2c1C` [Example 113], the IC50 was 0.72 nM on human TLR7, 510 nM on human TLR9 (setting [1]) and 0.57 nM on human TLR8 (setting [2]).
Consider `COc1cc(-c2[nH]c3cnc(N4CCNC[C@H]4C)c(F)c3c2C(C)C)cn2ncnc12` [compound 354], for which the IC50 against human TLR7 turned out to be 1.6 nM; on human TLR9 (setting [1]), 3430 nM; on human TLR8 (setting [2]), 9.9 nM.
`Cc1cc(-c2[nH]c3cnc(N4CCC(N(C)C5COC5)CC4)c(F)c3c2C(C)C)cn2ncnc12` [Example 130]: the results for the IC50 at human TLR7, at human TLR9 (setting [1]) and at human TLR8 (setting [2]) were 1.3 nM, 5250 nM and 0.76 nM, respectively.
Take `COc1cc(-c2[nH]c3cnc(N4CC5(CN(CC(C)C)C5)C4)c(F)c3c2C(C)C)cn2ncnc12` [Example 372]: the figures for the IC50 against human TLR7, on human TLR9 (setting [1]) and at human TLR8 (setting [2]) were 7.9 nM, 5440 nM and 440 nM, respectively.
Take `COc1cc(-c2[nH]c3cnc(N4CCN(CC(=O)N5CCOCC5)C[C@H]4C)c(F)c3c2C(C)C)cn2ncnc12` [Example 448]: the results for the IC50 against human TLR7, on human TLR9 (setting [1]) and on human TLR8 (setting [2]) were 28 nM, more than 50000 nM and 22 nM, respectively.
Turning to `COc1cc(-c2[nH]c3cnc(N4CC5(CN(CCS(C)(=O)=O)C5)C4)c(F)c3c2C(C)C)cn2ncnc12` [Example 357], the IC50 was 21 nM against human TLR7, 37400 nM on human TLR9 (setting [1]) and 10 nM at human TLR8 (setting [2]).
On the same counts, the results for `COc1cc(-c2[nH]c3cnc(N4CCC(NC(C)C)CC4)cc3c2C(C)C)cn2ncnc12` [Example 307] are 3 nM, 657 nM and 0.85 nM.
As to `Cc1c(-c2[nH]c3cnc(N4CCN(CC(=O)N5CCOCC5)C[C@H]4C)c(F)c3c2C(C)C)cn2ncnc2c1C` [Example 469], the IC50 against human TLR7 was determined as 13 nM; on human TLR9 (setting [3]), 47900 nM; on human TLR8 (setting [4]), 3.5 nM.
Take `Cc1c(-c2[nH]c3cnc(N4CCN(C(=O)CN5CCOCC5)CC4)c(F)c3c2C(C)C)cn2ncnc2c1C` [Example 421]: the IC50 was 16 nM on human TLR7, more than 50000 nM at human TLR9 (setting [1]) and 12 nM at human TLR8 (setting [2]).
As for `Cc1cc(-c2[nH]c3cnc(N4CCC(NC5CCOCC5)CC4)c(F)c3c2C(C)C)cn2ncnc12` [Example 220], the figures for the IC50 on human TLR7, at human TLR9 (setting [3]) and at human TLR8 (setting [4]) were 0.74 nM, 4540 nM and 0.35 nM, respectively.
In the case of `CCN(C)C1CCN(c2ncc3[nH]c(-c4cc(OC)c5ncnn5c4)c(C(C)C)c3c2C)CC1` [Example 138], the IC50 against human TLR7 came to 0.26 nM; on human TLR9 (setting [1]) it was 1900 nM; on human TLR8 (setting [2]) it was 0.49 nM.
Turning to `Cc1c(-c2[nH]c3cnc(C4CCC(N5CCC5)CC4)c(F)c3c2C(C)C)cn2ncnc2c1C` (stereo not drawn) [Example 233], the IC50 was 2.7 nM on human TLR7, 1160 nM on human TLR9 (setting [3]) and 3.6 nM at human TLR8 (setting [4]).
For `Cc1c(-c2[nH]c3cnc(C4CCN(CC(=O)N(C)C)CC4)cc3c2C(C)C)cn2ncnc2c1C` [Example 31], the figures for the concentration for half-maximal inhibition (IC50) at human TLR7, on human TLR9 (setting [1]) and on human TLR8 (setting [2]) were 2.1 nM, 132 nM and 6.2 nM, respectively.

One may read the IC50 as the concentration that gives 50% inhibition.
